Patent publication US8980866B2, “Complex obtained from hyaluronic acid or a salt thereof and chondroitin sulphate mixtures” (Quimera Ingenieria Biomedica, S.L., priority 2011, dated 2015)

Test: Apparent viscosity by rheometry (HAAKE RheoStress RS300, stress controlled mode, Cross model)
Assay type: physicochemical
Conditions: for Viscosity, γ = 1: shear rate 1 s^−1, 25° C.; for Viscosity, γ = 1 / Viscosity, γ = 10 / Viscosity, γ = 100 / Viscosity, γ = 200: Milli-Q water, concentration per Table 3; for Viscosity, γ = 10: shear rate 10 s^−1, 25° C.; for Viscosity, γ = 100: shear rate 100 s^−1, 25° C.; for Viscosity, γ = 200: shear rate 200 s^−1, 25° C.
Protocol: Aqueous solutions of HA:CS mixtures (control) and atomized complexes at different weight ratios of sodium hyaluronate and chondroitin sulphate were prepared for rheological characterization. Their rheological profile was determined using a HAAKE RheoStress RS300 rheometer in stress controlled mode. A 1° cone and 35 mm diameter plate was used.
Controls and 1:1 and 1:10 complexes were reconstituted in Milli-Q water.
Based on an applied shear stress, viscosity of the samples was measured at 25° C. All samples fitted in a Cross model, which allowed to compare the results obtained.

| Substance | Viscosity, γ = 1 | Viscosity loss, γ = 1 (shear rate 1 s^−1, difference in viscosity of a sample with respect its control) | Viscosity, γ = 10 | Viscosity loss, γ = 10 (shear rate 10 s^−1, difference in viscosity of a sample with respect its control) | Viscosity, γ = 100 | Viscosity loss, γ = 100 (shear rate 100 s^−1, difference in viscosity of a sample with respect its control) | Viscosity, γ = 200 | Viscosity loss, γ = 200 (shear rate 200 s^−1, difference in viscosity of a sample with respect its control) |
| --- | --- | --- | --- | --- | --- | --- | --- | --- |
| sodium hyaluronate [Sample 2] | 3378.5 mPa · s | 30.8% | 1924.5 mPa · s | 16.5% | 522.0 mPa · s | 9.6% | 326.5 mPa · s | 12.9% |
| sodium hyaluronate [Sample 1] | 4884.3 mPa · s |  | 2307.0 mPa · s |  | 578.0 mPa · s |  | 375.0 mPa · s |  |
